Test results reported in patent US20130131029A1, “ANTISOLVENT SOLIDIFICATION PROCESS” (MSD Oss B.V., priority 2005, published 2013).
Each block holds one molecule with its values, some of them ahead of it.

Assays:
[1] = Crystal size distribution (CSD) by laser diffraction (Mastersizer 2000, Fraunhofer model); format: physicochemical
[2] = as above; format: physicochemical; remark: listed apart in the source
Text: The solid, preferably crystalline, particles obtainable by a process as described above advantageously have a high purity and, furthermore, a narrow particle size range, such as were not obtainable by prior art processes. The span, defined as (d90-d10)/d50, wherein d50, d10, and d90 can be understood to mean that 50%, 10%, and 90%, respectively, of the particles having a particle size smaller than or equal to the indicated value as determined by conventional laser diffraction technique, can even be below 1.4, which is exceptional for a solidification process such as a crystallisation process. In general, for the process according to the present invention the span preferably is below 3. More preferably, the span is below 2.5, and most preferably below 2.
The following procedure was applied for the production of sodium chloride crystals using the antisolvent crystallisation process according to the present invention. All experiments were performed at ambient conditions. The resulting crystals were analysed by SEM (Scanning Electron Microscopy) and CSD (Crystal Size Distribution) measurements by means of laser diffraction using a Mastersizer 2000 apparatus of Malvern Instruments with a Fraunhofer model for data analysis.
The following procedure was applied for the production of 3-ketodesogestrel using the antisolvent crystallisation of the present invention. All experiments were performed at ambient conditions. The resulting crystals were analysed using CSD measurements that were measured via conventional laser diffraction technique.
A 3-ketodesogestrel solution was prepared of 97 g 3-ketodesogestrel in 5 l of ethanol. Water was used as antisolvent. For dosing, a Microdyn® type SE020TP1N membrane with an average pore size of 1 μm was used. The 3-ketodesogestrel solution was dosed from the outside of the membrane to the antisolvent on the inside of the membrane. The speed of the antisolvent was set to 45 l/hr. The speed of the 3-ketodesogestrel flow was set to 0.41 l/hr. Again, a gear pump was used to control the velocities. The crystals thus obtained were collected using filtration, washed with 100% ethanol, and subsequently dried in an oven. […] The span was determined to be 1.7. Herein d50, d10; and d90 can be understood to mean that 50%, 10%, and 90%, respectively, of the particles have a particle size smaller than or equal to the indicated value.
The following procedure was applied for the production of progesteron. All experiments were performed at ambient conditions. The resulting crystals were analysed by CSD measurements by means of laser diffraction using a Mastersizer 2000 apparatus of Malvern Instruments with a Fraunhofer model for data analysis.

[3] = Entry 1, antisolvent flow 45 l/h, 3-ketodesogestrel flow 0.7 l/h, Microdyn membrane pore size 1 μm
[4] = Entry 2, antisolvent flow 45 l/h, 3-ketodesogestrel flow 0.4 l/h, Microdyn membrane pore size 1 μm
[5] = Entry 3, antisolvent flow 45 l/h, 3-ketodesogestrel flow 6.2 l/h, Microdyn membrane pore size 1 μm
[6] = Entry 4, antisolvent flow 90 l/h, 3-ketodesogestrel flow 0.7 l/h, Microdyn membrane pore size 1 μm
[7] = Entry 5, antisolvent flow 90 l/h, 3-ketodesogestrel flow 5.0 l/h, Microdyn membrane pore size 1 μm
[8] = Entry 6, antisolvent flow 45 l/h, 3-ketodesogestrel flow 10 l/h, Microdyn membrane pore size 1 μm
[9] = Entry 7, antisolvent flow 45 l/h, 3-ketodesogestrel flow 42 l/h, Microdyn membrane pore size 1 μm
[10] = Entry 8, antisolvent flow 45 l/h, 3-ketodesogestrel flow 20 l/h, Microdyn membrane pore size 1 μm
[11] = Example 2, 97 g in 5 l ethanol, flow 0.41 l/hr, water antisolvent 45 l/hr, Microdyn membrane 1 μm
[12] = Entry 1, antisolvent 100 wt % water, 0 wt % ethanol, 45 l/h, progesteron solution 50 g per litre ethanol, 12 l/h, Microdyn membrane 1 μm
[13] = Entry 2, antisolvent 85 wt % water, 15 wt % ethanol, 45 l/h, progesteron solution 50 g per litre ethanol, 12 l/h, Microdyn membrane 1 μm
[14] = Entry 3, antisolvent 70 wt % water, 30 wt % ethanol, 45 l/h, progesteron solution 50 g per litre ethanol, 12 l/h, Microdyn membrane 1 μm
[15] = Example 1, 25 wt % NaCl solution 60 l/hr into ethanol antisolvent 50 l/hr, SPG membrane pore-size 1.1 μm
[16] = Example 5, 34 mg tibolone in 1 kg ethanol, 65 l/hr, antisolvent 90 wt % water/10 wt % ethanol, 151/hr, SPG membrane 1.1 μm

Span [1, 3]: 1.6 | d10 [1, 3]: 3 µm | d50 [1, 3]: 11 µm | d90 [1, 3]: 21 µm | Span [1, 4]: 1.7 | d10 [1, 4]: 3 µm | d90 [1, 4]: 20 µm | Span [1, 5]: 2.5 | d10 [1, 5]: 5 µm | d50 [1, 5]: 16 µm | d90 [1, 5]: 45 µm | Span [1, 6]: 1.9 | d10 [1, 6]: 4 µm | d50 [1, 6]: 10 µm | d90 [1, 6]: 23 µm | Span [1, 7]: 2.9 | d10 [1, 7]: 2 µm | d50 [1, 7]: 7 µm | d90 [1, 7]: 22 µm | Span [1, 8]: 2.8 | d10 [1, 8]: 2 µm | d50 [1, 8]: 8 µm | d90 [1, 8]: 24 µm | Span [1, 9]: 1.9 | d10 [1, 9]: 12 µm | d50 [1, 9]: 42 µm | d90 [1, 9]: 90 µm | Span [1, 10]: 3 | d10 [1, 10]: 2 µm | d50 [1, 10]: 9 µm | d90 [1, 10]: 29 µm | d90 [1, 11]: 20 μm | d50 [2, 4]: 10 µm | Span [2, 11]: 1.7 | d10 [2, 11]: 3 μm | d50 [2, 11]: 10 μm
SMILES: C#C[C@]1(O)CC[C@H]2[C@@H]3CCC4=CC(=O)CC[C@@H]4[C@H]3C(=C)C[C@@]21CC [3-ketodesogestrel, (17alfa)-17-hydroxy-13-ethyl-11-methylene-18,19-dinorpregn-4-en-20-yn-3-one]

Span [1, 12]: 2 | d10 [1, 12]: 2 | d50 [1, 12]: 7 | Span [1, 13]: 1.8 | d50 [1, 13]: 12 | d10 [1, 14]: 7 | d50 [1, 14]: 21 | d90 [1, 14]: 43 | d90 [2, 12]: 16 | d10 [2, 13]: 4 | d90 [2, 13]: 25 | Span [2, 14]: 1.7 | span, in words ([2]; all antisolvent compositions of Table 2): surprisingly small span
SMILES: CC(=O)[C@H]1CC[C@H]2[C@@H]3CCC4=CC(=O)CC[C@]4(C)[C@H]3CC[C@]12C [progesteron, pregn-4-ene-3,20-dione]

SMILES: [Cl-].[Na+] [sodium chloride]
Span [1, 15]: 1.5 | average crystal size d50 [2, 15]: 40 μm | Span ([2]; Example 1 additional experiment, stirring rod 630 rpm inside membrane, salt solution 40 l/hr, ethanol 50 l/hr): 1.2

SMILES: C#CC1(O)CCC2C3C(CCC21C)C1=C(CC(=O)CC1)C[C@H]3C (stereo partly shown) [tibolone, (7alfa, 17alfa)-17-hydroxy-7-methyl-19-nor-pregn-5(10)-en-20-yn-3-one]
d10 [1, 16]: 3.8 μm | d50 [1, 16]: 18.2 μm | d90 [2, 16]: 51.3 μm
